From PubChem BioAssay AID2060493 (Molecular Pharmacology Branch, DTP, NCI, 2025)

Test system: 616215-338-R-J1-PDC tumor spheroids, viability
Test: Anticancer human tumor 616215-338-R-J1-PDC patient-derived colon adenocarcinoma cell line growth inhibition [GQUAD]
Conditions: spheroids with HUVEC and MSC; for IC50: curve of first compound; for viability, T/C: stronger effect = lower value
Method in brief: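 Tumor cells were grown as complex spheroids with HUVEC endothelial cells and mesenchymal stem cells as stroma. G-quadruplex stabilizers were combined with targeted agents over half-log dilutions from near the clinical Cmax, or from 10 microM.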

[1] = second compound 0.0316 µM, first compound 0.0316 µM
[2] = second compound 0.0316 µM, first compound 0.1 µM
[3] = second compound 0.0316 µM, first compound 0.316 µM
[4] = second compound 0.0316 µM, first compound 1 µM
[5] = second compound 0.0316 µM, first compound 3.16 µM
[6] = second compound 0.0316 µM, first compound 10 µM
[7] = second compound 0.1 µM, first compound 0.0316 µM
[8] = second compound 0.1 µM, first compound 0.1 µM
[9] = second compound 0.1 µM, first compound 0.316 µM
[10] = second compound 0.1 µM, first compound 1 µM
[11] = second compound 0.1 µM, first compound 3.16 µM
[12] = second compound 0.1 µM, first compound 10 µM
[13] = second compound 0.316 µM, first compound 0.0316 µM
[14] = second compound 0.316 µM, first compound 0.1 µM
[15] = second compound 0.316 µM, first compound 0.316 µM
[16] = second compound 0.316 µM, first compound 1 µM
[17] = second compound 0.316 µM, first compound 3.16 µM
[18] = second compound 0.316 µM, first compound 10 µM
[19] = second compound 1 µM, first compound 0.0316 µM
[20] = second compound 1 µM, first compound 0.1 µM
[21] = second compound 1 µM, first compound 0.316 µM
[22] = second compound 1 µM, first compound 1 µM
[23] = second compound 1 µM, first compound 3.16 µM
[24] = second compound 1 µM, first compound 10 µM
[25] = second compound 3.16 µM, first compound 0.0316 µM
[26] = second compound 3.16 µM, first compound 0.1 µM
[27] = second compound 3.16 µM, first compound 0.316 µM
[28] = second compound 3.16 µM, first compound 1 µM
[29] = second compound 3.16 µM, first compound 3.16 µM
[30] = second compound 3.16 µM, first compound 10 µM
[31] = second compound 10 µM, first compound 0.0316 µM
[32] = second compound 10 µM, first compound 0.1 µM
[33] = second compound 10 µM, first compound 0.316 µM
[34] = second compound 10 µM, first compound 1 µM
[35] = second compound 10 µM, first compound 3.16 µM
[36] = second compound 10 µM, first compound 10 µM
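Further: spheroids exposed to agents for 7 days before readout.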
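Wherever viability, T/C is given: percent viability relative to DMSO vehicle control wells taken as 100%.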

**Q.** Which results are given for `C=CC(=O)N1CCN(c2nc(=O)n(-c3c(C)ccnc3C(C)C)c3nc(-c4c(O)cccc4F)c(F)cc23)C(C)C1` (centres undefined) + Cc1[nH]c2ccc(F)cc2c1-c1nc2c3cccnc3c3ncccc3c2[nH]1?
**A.** IC50 (second compound 0.0316 µM): > 10 µM; IC50 (second compound 0.1 µM): > 10 µM; IC50 (second compound 0.316 µM): > 10 µM; IC50 (second compound 1 µM): > 10 µM; IC50 (second compound 3.16 µM): > 10 µM; IC50 (second compound 10 µM): > 10 µM; viability, T/C [1]: 102%; viability, T/C [2]: 95%; viability, T/C [3]: 97.3%; viability, T/C [4]: 104%; viability, T/C [5]: 89.7%; viability, T/C [6]: 82.1%; viability, T/C [7]: 102%; viability, T/C [8]: 92.5%; viability, T/C [9]: 102%; viability, T/C [10]: 96.9%; viability, T/C [11]: 93.9%; viability, T/C [12]: 71.6%; viability, T/C [13]: 87.4%; viability, T/C [14]: 98.6%; viability, T/C [15]: 96.8%; viability, T/C [16]: 108%; viability, T/C [17]: 88.6%; viability, T/C [18]: 67.7%; viability, T/C [19]: 99.7%; viability, T/C [20]: 93.2%; viability, T/C [21]: 90.8%; viability, T/C [22]: 105%; viability, T/C [23]: 92.5%; viability, T/C [24]: 71.8%; viability, T/C [25]: 100%; viability, T/C [26]: 88.2%; viability, T/C [27]: 107%; viability, T/C [28]: 88.3%; viability, T/C [29]: 87.6%; viability, T/C [30]: 59.1%; viability, T/C [31]: 99.7%; viability, T/C [32]: 84.9%; viability, T/C [33]: 88%; viability, T/C [34]: 90.2%; viability, T/C [35]: 86.2%; viability, T/C [36]: 69.2%

**Q.** For `C=CC(=O)N1CCN(c2nc(=O)n(-c3c(C)ccnc3C(C)C)c3nc(-c4c(O)cccc4F)c(F)cc23)C(C)C1` (centres undefined) + Cc1cnc(CNC(=O)c2c(=O)c3ccc(N4CCCN(C)CC4)nc3n3c2sc2ccccc23)cn1, which IC50 (second compound 0.0316 µM) is on record?
**A.** > 10 µM

**Q.** What about the IC50 (second compound 0.1 µM) of the same molecule?
**A.** > 10 µM

**Q.** What about the IC50 (second compound 0.316 µM) of the same molecule?
**A.** 0.938 µM

**Q.** What about the IC50 (second compound 1 µM) of the same molecule?
**A.** < 0.0316 µM

**Q.** What about the IC50 (second compound 3.16 µM) of the same molecule?
**A.** < 0.0316 µM

**Q.** And the IC50 (second compound 10 µM)?
**A.** < 0.0316 µM

**Q.** And the viability, T/C [1]?
**A.** 106%

**Q.** And the viability, T/C [2]?
**A.** 109%

**Q.** What about the viability, T/C [3] of the same molecule?
**A.** 99.1%

**Q.** What about the viability, T/C [4] of the same molecule?
**A.** 95.9%

**Q.** What about the viability, T/C [5] of the same molecule?
**A.** 89.2%

**Q.** And the viability, T/C [6]?
**A.** 63.7%

**Q.** And the viability, T/C [7]?
**A.** 79.8%

**Q.** And the viability, T/C [8]?
**A.** 73.9%

**Q.** And the viability, T/C [9]?
**A.** 43.4%

**Q.** What about the viability, T/C [10] of the same molecule?
**A.** 64%

**Q.** And the viability, T/C [11]?
**A.** 94.5%

**Q.** And the viability, T/C [12]?
**A.** 48.5%

**Q.** And the viability, T/C [13]?
**A.** 43.1%

**Q.** And the viability, T/C [14]?
**A.** 69.1%

**Q.** What about the viability, T/C [15] of the same molecule?
**A.** 62.8%

**Q.** What about the viability, T/C [16] of the same molecule?
**A.** 49.5%

**Q.** What about the viability, T/C [17] of the same molecule?
**A.** 43.8%

**Q.** What about the viability, T/C [18] of the same molecule?
**A.** 47.6%

**Q.** And the viability, T/C [19]?
**A.** 30.9%

**Q.** What about the viability, T/C [20] of the same molecule?
**A.** 41%

**Q.** What about the viability, T/C [21] of the same molecule?
**A.** 38.5%

**Q.** And the viability, T/C [22]?
**A.** 34.4%

**Q.** What about the viability, T/C [23] of the same molecule?
**A.** 38%

**Q.** What about the viability, T/C [24] of the same molecule?
**A.** 41.8%

**Q.** And the viability, T/C [25]?
**A.** 30.6%

**Q.** What about the viability, T/C [26] of the same molecule?
**A.** 36.6%

**Q.** And the viability, T/C [27]?
**A.** 32.9%

**Q.** What about the viability, T/C [28] of the same molecule?
**A.** 26.6%

**Q.** And the viability, T/C [29]?
**A.** 37%

**Q.** What about the viability, T/C [30] of the same molecule?
**A.** 42.5%

**Q.** And the viability, T/C [31]?
**A.** 30.9%

**Q.** And the viability, T/C [32]?
**A.** 28.6%

**Q.** What about the viability, T/C [33] of the same molecule?
**A.** 26%

**Q.** What about the viability, T/C [34] of the same molecule?
**A.** 35.2%

**Q.** What about the viability, T/C [35] of the same molecule?
**A.** 34.4%

**Q.** What about the viability, T/C [36] of the same molecule?
**A.** 24.2%
